From publication doi:10.1101/208439v1 (biorxiv, 2017) come the findings set out here.

Where two headings read alike, the source gives them in different places.

The target in assay [1] is T1, NSD2 (Homo sapiens, UniProt O96028, E1099K).
T1 construct: full length (residues 2-1365), N-terminal His tag, insect cell/baculovirus
T1 sequence (O96028 2-1365 E1099K): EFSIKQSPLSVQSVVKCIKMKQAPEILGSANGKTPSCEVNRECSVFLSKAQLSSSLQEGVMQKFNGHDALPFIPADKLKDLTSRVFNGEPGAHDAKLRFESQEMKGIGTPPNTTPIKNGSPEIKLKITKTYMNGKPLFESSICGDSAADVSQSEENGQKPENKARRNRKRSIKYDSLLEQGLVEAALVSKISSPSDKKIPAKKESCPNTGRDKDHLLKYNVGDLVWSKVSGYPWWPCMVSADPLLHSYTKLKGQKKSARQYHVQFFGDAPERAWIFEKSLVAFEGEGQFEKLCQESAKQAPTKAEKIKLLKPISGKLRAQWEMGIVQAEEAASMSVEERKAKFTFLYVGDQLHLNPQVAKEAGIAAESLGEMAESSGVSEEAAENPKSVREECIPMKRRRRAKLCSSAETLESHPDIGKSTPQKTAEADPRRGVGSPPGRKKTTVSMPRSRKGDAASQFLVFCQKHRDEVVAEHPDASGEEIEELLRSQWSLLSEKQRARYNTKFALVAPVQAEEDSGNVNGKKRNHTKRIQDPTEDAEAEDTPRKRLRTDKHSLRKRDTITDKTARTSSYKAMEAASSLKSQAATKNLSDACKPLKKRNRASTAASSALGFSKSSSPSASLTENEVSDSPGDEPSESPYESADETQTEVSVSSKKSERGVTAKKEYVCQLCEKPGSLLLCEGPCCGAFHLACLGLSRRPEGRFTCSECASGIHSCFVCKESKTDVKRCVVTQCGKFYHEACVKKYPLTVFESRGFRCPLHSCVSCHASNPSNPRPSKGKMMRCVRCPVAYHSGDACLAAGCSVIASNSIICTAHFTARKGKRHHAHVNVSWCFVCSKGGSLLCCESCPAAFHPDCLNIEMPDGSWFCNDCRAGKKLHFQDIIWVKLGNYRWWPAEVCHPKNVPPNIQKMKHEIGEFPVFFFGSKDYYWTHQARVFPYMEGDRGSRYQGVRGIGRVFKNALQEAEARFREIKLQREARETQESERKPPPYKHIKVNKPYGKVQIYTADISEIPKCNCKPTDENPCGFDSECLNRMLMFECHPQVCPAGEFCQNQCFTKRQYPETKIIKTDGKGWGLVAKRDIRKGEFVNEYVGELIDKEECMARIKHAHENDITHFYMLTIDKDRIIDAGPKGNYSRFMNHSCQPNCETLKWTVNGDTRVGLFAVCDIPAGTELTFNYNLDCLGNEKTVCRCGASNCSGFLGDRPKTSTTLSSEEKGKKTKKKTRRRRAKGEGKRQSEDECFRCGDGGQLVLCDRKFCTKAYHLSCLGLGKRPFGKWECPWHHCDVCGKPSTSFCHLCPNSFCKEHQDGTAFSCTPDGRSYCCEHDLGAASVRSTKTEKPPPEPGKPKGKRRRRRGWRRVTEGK
The assay is described as follows: HotSpot [3H]SAM filter-binding methyltransferase assay. It counts as biochemical.

Assay [2] has as its target T2, SET8 (Homo sapiens, UniProt Q9NQR1).
T2 construct: gene KMT5A
T2 sequence (Q9NQR1 1-393): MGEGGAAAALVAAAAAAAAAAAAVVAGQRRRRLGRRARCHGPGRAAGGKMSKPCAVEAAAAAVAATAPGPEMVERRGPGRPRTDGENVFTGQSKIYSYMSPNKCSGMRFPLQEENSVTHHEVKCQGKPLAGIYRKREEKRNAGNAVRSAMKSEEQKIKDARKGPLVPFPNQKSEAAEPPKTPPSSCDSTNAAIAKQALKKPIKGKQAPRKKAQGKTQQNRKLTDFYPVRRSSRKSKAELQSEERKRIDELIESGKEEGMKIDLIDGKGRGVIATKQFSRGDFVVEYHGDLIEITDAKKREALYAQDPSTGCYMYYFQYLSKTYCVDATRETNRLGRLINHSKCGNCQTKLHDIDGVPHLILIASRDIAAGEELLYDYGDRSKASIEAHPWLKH
In words: biochemical.

The target in assay [3] is T3, SETD2 (Homo sapiens, UniProt Q9BYW2).
T3 sequence (Q9BYW2 1434-1711): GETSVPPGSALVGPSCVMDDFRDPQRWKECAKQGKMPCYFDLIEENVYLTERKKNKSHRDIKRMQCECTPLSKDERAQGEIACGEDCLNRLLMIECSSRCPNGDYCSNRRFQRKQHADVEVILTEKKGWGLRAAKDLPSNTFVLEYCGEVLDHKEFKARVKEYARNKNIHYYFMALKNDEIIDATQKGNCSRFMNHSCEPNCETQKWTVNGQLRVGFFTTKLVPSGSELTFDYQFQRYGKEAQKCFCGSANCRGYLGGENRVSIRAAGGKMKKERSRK
The assay is described as follows: HotSpot [3H]SAM filter-binding methyltransferase assay. It is filed as biochemical. Further details: residues 1434-1711, N-terminal GST fusion, E. coli.

Assay [4] concerns the target ASH1L (Homo sapiens, UniProt Q9NR48). The description is as above. It is filed as biochemical. Further details: residues 2046-2330, N-terminal His tag, E. coli.
The target in assay [5] is T4, NSD3 (Homo sapiens, UniProt Q9BZ95).
T4 sequence (Q9BZ95 1021-1322): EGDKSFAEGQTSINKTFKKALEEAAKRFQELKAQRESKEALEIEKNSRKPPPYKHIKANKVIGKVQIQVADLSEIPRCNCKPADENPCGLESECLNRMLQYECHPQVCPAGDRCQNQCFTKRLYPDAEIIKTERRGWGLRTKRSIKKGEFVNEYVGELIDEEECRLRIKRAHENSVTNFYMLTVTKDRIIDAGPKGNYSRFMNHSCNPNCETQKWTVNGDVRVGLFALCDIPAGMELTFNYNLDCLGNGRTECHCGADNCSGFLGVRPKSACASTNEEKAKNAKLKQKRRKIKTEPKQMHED
The description is as above. Further details: residues 1021-1322, GST fusion, E. coli. It counts as biochemical. To be noted: nucleosomes, […] SAM, Bicine pH […] DTT, […] °C, single experiment.

The target in assay [6] is MLL1 Complex (Homo sapiens, UniProt Q03164). Described as above. It is filed as biochemical. Also noted: gene KMT2A; five-member complex, His-tagged subunits, E. coli; ASH2L isoform of NM_001105214; with WD repeat-containing protein 5; Set1/Ash2 histone methyltransferase complex subunit ASH2; Protein dpy-30 homolog.
[7] abbreviates: nucleosomes, […] SAM, pH […] MgCl2, […] DTT, […] °C, single experiment.

MLL1 Complex, sequence (Q9UBL3 96-628): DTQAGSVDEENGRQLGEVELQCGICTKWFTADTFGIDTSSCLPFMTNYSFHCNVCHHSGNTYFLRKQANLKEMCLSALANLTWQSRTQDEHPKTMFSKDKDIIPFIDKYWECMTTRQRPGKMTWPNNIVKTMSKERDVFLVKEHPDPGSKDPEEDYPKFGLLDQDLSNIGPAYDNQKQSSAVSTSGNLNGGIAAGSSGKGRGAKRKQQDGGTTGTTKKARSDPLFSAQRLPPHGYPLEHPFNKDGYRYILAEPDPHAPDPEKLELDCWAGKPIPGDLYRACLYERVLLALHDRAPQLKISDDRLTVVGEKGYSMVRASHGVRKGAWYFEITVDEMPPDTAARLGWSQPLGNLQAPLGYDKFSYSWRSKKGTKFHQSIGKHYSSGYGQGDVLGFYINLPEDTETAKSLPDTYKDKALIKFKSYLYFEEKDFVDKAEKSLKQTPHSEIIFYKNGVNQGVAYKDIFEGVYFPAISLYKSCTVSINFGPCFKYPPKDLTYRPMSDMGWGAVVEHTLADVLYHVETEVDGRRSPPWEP
MLL1 Complex, sequence (Q03164 3745-3969): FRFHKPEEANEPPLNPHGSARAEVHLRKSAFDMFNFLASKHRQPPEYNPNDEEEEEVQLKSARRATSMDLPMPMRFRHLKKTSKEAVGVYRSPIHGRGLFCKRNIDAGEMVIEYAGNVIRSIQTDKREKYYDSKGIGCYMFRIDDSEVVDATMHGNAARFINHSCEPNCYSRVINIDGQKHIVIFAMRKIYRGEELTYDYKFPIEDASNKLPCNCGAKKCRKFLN
MLL1 Complex, sequence (Q9C005 whole entry, further chain, canonical isoform): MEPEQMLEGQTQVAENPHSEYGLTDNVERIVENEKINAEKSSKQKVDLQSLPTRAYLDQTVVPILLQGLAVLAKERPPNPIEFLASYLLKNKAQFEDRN
MLL1 Complex, sequence (Q15291 whole entry, further chain, canonical isoform): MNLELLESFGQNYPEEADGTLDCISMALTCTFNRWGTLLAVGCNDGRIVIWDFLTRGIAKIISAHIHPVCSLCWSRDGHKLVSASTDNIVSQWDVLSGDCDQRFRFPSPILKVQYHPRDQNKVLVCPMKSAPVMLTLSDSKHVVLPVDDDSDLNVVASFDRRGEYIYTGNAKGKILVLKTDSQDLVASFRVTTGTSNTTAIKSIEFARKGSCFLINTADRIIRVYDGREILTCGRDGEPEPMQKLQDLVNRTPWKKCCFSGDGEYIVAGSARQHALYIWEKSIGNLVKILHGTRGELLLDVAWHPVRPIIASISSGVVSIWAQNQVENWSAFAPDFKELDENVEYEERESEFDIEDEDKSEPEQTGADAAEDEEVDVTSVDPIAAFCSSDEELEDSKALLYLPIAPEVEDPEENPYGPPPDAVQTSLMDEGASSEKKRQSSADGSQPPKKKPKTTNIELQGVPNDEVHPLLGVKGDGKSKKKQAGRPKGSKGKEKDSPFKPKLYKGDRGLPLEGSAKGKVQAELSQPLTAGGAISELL

Take `CC1(C)CCC(CN2CCN(c3ccc(C(=O)NS(=O)(=O)c4ccc(NCC5CCOCC5)c([N+](=O)[O-])c4)c(Oc4cnc5[nH]ccc5c4)c3)CC2)=C(c2ccc(Cl)cc2)C1` [ABT-199]: the IC50 (commonly the point on the concentration scale where inhibition reaches its midpoint) in assay [1] was 2200 nM; in assay [2], 5.3 µM; in assay [3], 3.3 µM; in assay [4], 3.3 µM; in assay [5], 1300 nM; in assay [6] it was 720 nM.
Consider `O=C1C(Cl)=C(NCCN2CCOCC2)C(=O)c2ncccc21` [DA3003-1], for which the IC50 in assay [1] (setting [7]) was 110 nM; in assay [2] (read-out: DA3003-1 IC50, inhibitor), 4.4 µM; in assay [3], 0.21 µM; in assay [4], 0.2 µM; in assay [5] it was 260 nM; in assay [6], 250 nM.
For the molecule `COc1cccc(-n2nc(C(=O)O)cc2-c2ccc(C3CCCCC3)c(Cl)c2)c1` [TC LPA5 4], the 50% inhibitory concentration (IC50) in assay [1] (setting [7]) was 7200 nM; in assay [2], 44 µM; in assay [3] (setting [7]), 13 µM; in assay [4] (setting [7]) it was 9.2 µM; in assay [5] it was 2300 nM; in assay [6] (setting [7]), 3200 nM.
